Measurements taken from US20260256792A1, “TREATMENT OF CHRONIC SPONTANEOUS URTICARIA BY ADMINISTERING (R)-2-[3-[4-AMINO-3-(2-FLUORO-4-PHENOXY-PHENYL)PYRAZOLO[3,4-D]PYRIMIDIN-1-YL]PIPERIDINE-1-CARBONYL]-4-METHYL-4-[4-(OXETAN-3-YL)PIPERAZIN-1-YL]PENT-2-ENENITRILE” (priority 2023, published 2026).

Test system: angioedema in CSU patients
Experiment: Phase 2 CSU study: angioedema activity score over 7 days (AAS7)
Assay type: in vivo, human
Conditions: 400 mg BID; for AAS7 = 0, RRD (%) for rilzabrutinib vs. placebo (95% CI) / AAS7 Post-baseline Mean (SD) / Participants with AAS7 = 0, Responder n (%) / AAS7 % Change difference for rilzabrutinib vs. placebo LS Mean (95% CI) / AAS7 Change difference for rilzabrutinib vs. placebo LS Mean (95% CI) / AAS7 Change from baseline LS Mean (SE) / AAS7 % Change from baseline LS Mean (SE) / AAS7 = 0, Non-responder n (%) / AAS7 = 0, OR (95% CI) for rilzabrutinib vs. placebo: angioedema at baseline; for Non-responder n (%), AAS7 = 0 / OR (95% CI) for rilzabrutinib vs. placebo, AAS7 = 0 / RRD (%) for rilzabrutinib vs. placebo (95% CI), AAS7 = 0 / Responder n (%), AAS7 = 0: outlier removed
Text: The study comprises a 12 week, randomized, double-blind, placebo-controlled, multi-center, dose-ranging efficacy and safety phase, followed by a 40 week open label extension (OLE) phase (see FIG. 1). The study consists of three phases and an optional OLE phase. […] The weekly angioedema activity score (AAS7) was proposed as a tertiary endpoint. […] Patients were to complete the AAS using the e-diary. The e-diary was to be used once daily on the same time of each day recording of participant's answers to the angioedema activity score over 7 days (AAS7) questionnaire.

CC(C)(C=C(C#N)C(=O)N1CCC[C@@H](n2nc(-c3ccc(Oc4ccccc4)cc3F)c3c(N)ncnc32)C1)N1CCN(C2COC2)CC1 [rilzabrutinib, (R)-2-[3-[4-amino-3-(2-fluoro-4-phenoxy-phenyl)pyrazolo[3,4-d]pyrimidin-1-yl]piperidine-1-carbonyl]-4-methyl-4-[4-(oxetan-3-yl)piperazin-1-yl]pent-2-enenitrile]
AAS7 = 0, RRD (%) for rilzabrutinib vs. placebo (95% CI) (Week 8, omalizumab-naïve): 26.4 % | AAS7 Post-baseline Mean (SD) (Week 8, omalizumab-naïve): 9.97 (16.69) | Participants with AAS7 = 0, Responder n (%) (Week 8, omalizumab-naïve): 13 (50.0) n (%) | AAS7 % Change difference for rilzabrutinib vs. placebo LS Mean (95% CI) (Week 9, ITT): −26.88 (−56.35, 2.58) % | AAS7 Change difference for rilzabrutinib vs. placebo LS Mean (95% CI) (Week 9, ITT): −11.25 (−21.79, −0.72) | AAS7 Change from baseline LS Mean (SE) (Week 9, ITT): −40.70 (4.08) | AAS7 Post-baseline Mean (SD) (Week 9, ITT): 10.00 (17.78) | Non-responder n (%), AAS7 = 0 (Week 9, omalizumab-naïve): 18 (51.4) n (%) | OR (95% CI) for rilzabrutinib vs. placebo, AAS7 = 0 (Week 9, omalizumab-naïve): 0.919 | RRD (%) for rilzabrutinib vs. placebo (95% CI), AAS7 = 0 (Week 9, omalizumab-naïve): −2.1 % | Responder n (%), AAS7 = 0 (Week 9, omalizumab-naïve): 17 (48.6) n (%) | AAS7 % Change from baseline LS Mean (SE) (Week 9, omalizumab-naïve): −74.80 (12.27) % | AAS7 = 0, Non-responder n (%) (Week 9, omalizumab-naïve): 14 (53.8) n (%) | AAS7 = 0, OR (95% CI) for rilzabrutinib vs. placebo (Week 9, omalizumab-naïve): 1.787 | AAS7 = 0, RRD (%) for rilzabrutinib vs. placebo (95% CI) (Week 9, omalizumab-naïve): 14.5 % | AAS7 Post-baseline Mean (SD) (Week 9, omalizumab-naïve): 10.87 (18.30) | Participants with AAS7 = 0, Responder n (%) (Week 9, omalizumab-naïve): 12 (46.2) n (%) | AAS7 % Change difference for rilzabrutinib vs. placebo LS Mean (95% CI) (Week 10, ITT): −15.09 (−55.38, 25.21) % | AAS7 % Change from baseline LS Mean (SE) (Week 10, ITT): −64.07 (15.65) % | AAS7 Change difference for rilzabrutinib vs. placebo LS Mean (95% CI) (Week 10, ITT): −8.79 (−20.40, 2.82) | AAS7 Change from baseline LS Mean (SE) (Week 10, ITT): −39.12 (4.47) | AAS7 Post-baseline Mean (SD) (Week 10, ITT): 12.72 (19.89) | Non-responder n (%), AAS7 = 0 (Week 10, omalizumab-naïve): 19 (54.3) n (%) | OR (95% CI) for rilzabrutinib vs. placebo, AAS7 = 0 (Week 10, omalizumab-naïve): 0.945 | RRD (%) for rilzabrutinib vs. placebo (95% CI), AAS7 = 0 (Week 10, omalizumab-naïve): −1.4 % | Responder n (%), AAS7 = 0 (Week 10, omalizumab-naïve): 16 (45.7) n (%) | AAS7 % Change from baseline LS Mean (SE) (Week 10, omalizumab-naïve): −60.11 (16.65) % | AAS7 = 0, Non-responder n (%) (Week 10, omalizumab-naïve): 15 (57.7) n (%) | AAS7 = 0, OR (95% CI) for rilzabrutinib vs. placebo (Week 10, omalizumab-naïve): 1.734 | AAS7 = 0, RRD (%) for rilzabrutinib vs. placebo (95% CI) (Week 10, omalizumab-naïve): 13.1 % | AAS7 Post-baseline Mean (SD) (Week 10, omalizumab-naïve): 13.93 (20.43) | Participants with AAS7 = 0, Responder n (%) (Week 10, omalizumab-naïve): 11 (42.3) n (%) | AAS7 % Change difference for rilzabrutinib vs. placebo LS Mean (95% CI) (Week 11, ITT): −23.43 (−51.36, 4.50) % | AAS7 % Change from baseline LS Mean (SE) (Week 11, ITT): −84.81 (10.85) % | AAS7 Change difference for rilzabrutinib vs. placebo LS Mean (95% CI) (Week 11, ITT): −8.17 (−19.55, 3.20) | AAS7 Change from baseline LS Mean (SE) (Week 11, ITT): −42.03 (4.41) | AAS7 Post-baseline Mean (SD) (Week 11, ITT): 10.31 (18.47) | Non-responder n (%), AAS7 = 0 (Week 11, omalizumab-naïve): 14 (40.0) n (%) | OR (95% CI) for rilzabrutinib vs. placebo, AAS7 = 0 (Week 11, omalizumab-naïve): 1.516 | RRD (%) for rilzabrutinib vs. placebo (95% CI), AAS7 = 0 (Week 11, omalizumab-naïve): 10.4 % | Responder n (%), AAS7 = 0 (Week 11, omalizumab-naïve): 21 (60.0) n (%) | AAS7 = 0, Non-responder n (%) (Week 11, omalizumab-naïve): 13 (50.0) n (%) | AAS7 = 0, OR (95% CI) for rilzabrutinib vs. placebo (Week 11, omalizumab-naïve): 2.010 | AAS7 = 0, RRD (%) for rilzabrutinib vs. placebo (95% CI) (Week 11, omalizumab-naïve): 17.8 % | AAS7 Post-baseline Mean (SD) (Week 11, omalizumab-naïve): 11.30 (19.07) | Participants with AAS7 = 0, Responder n (%) (Week 11, omalizumab-naïve): 13 (50.0) n (%) | AAS7 % Change from baseline LS Mean (SE) (Week 12, ITT): −87.51 (10.12) % | AAS7 Change difference for rilzabrutinib vs. placebo LS Mean (95% CI) (Week 12, ITT): −7.07 (−17.69, 3.54) | AAS7 Change from baseline LS Mean (SE) (Week 12, ITT): −42.38 (4.13) | AAS7 Post-baseline Mean (SD) (Week 12, ITT): 10.67 (17.53) | patients with angioedema score (AAS7) of 0 (Week 12, omalizumab-naïve): 42.3% | Non-responder n (%), AAS7 = 0 (Week 12, omalizumab-naïve): 18 (51.4) n (%) | OR (95% CI) for rilzabrutinib vs. placebo, AAS7 = 0 (Week 12, omalizumab-naïve): 0.925 | RRD (%) for rilzabrutinib vs. placebo (95% CI), AAS7 = 0 (Week 12, omalizumab-naïve): −1.9 % | Responder n (%), AAS7 = 0 (Week 12, omalizumab-naïve): 17 (48.6) n (%) | AAS7 = 0, Non-responder n (%) (Week 12, omalizumab-naïve): 15 (57.7) n (%) | AAS7 = 0, OR (95% CI) for rilzabrutinib vs. placebo (Week 12, omalizumab-naïve): 1.627 | AAS7 = 0, RRD (%) for rilzabrutinib vs. placebo (95% CI) (Week 12, omalizumab-naïve): 11.3 % | AAS7 Change difference for rilzabrutinib vs. placebo LS Mean (95% CI) (Week 12, omalizumab-naïve): −8.14 (−19.74, 3.45)
